Experiments:
Assay in all cases: Enzyme Assay
[1] = biological target: PIK3CD (Human) (UniProt O00329)
[2] = biological target: PIK3CA (human) (UniProt P42336)
[3] = biological target: PIK3CB (Human) (UniProt P42338)
[4] = biological target: PIK3CG (human) (UniProt P48736)
Sequence of PIK3CG (human) (P48736 whole entry, looked up): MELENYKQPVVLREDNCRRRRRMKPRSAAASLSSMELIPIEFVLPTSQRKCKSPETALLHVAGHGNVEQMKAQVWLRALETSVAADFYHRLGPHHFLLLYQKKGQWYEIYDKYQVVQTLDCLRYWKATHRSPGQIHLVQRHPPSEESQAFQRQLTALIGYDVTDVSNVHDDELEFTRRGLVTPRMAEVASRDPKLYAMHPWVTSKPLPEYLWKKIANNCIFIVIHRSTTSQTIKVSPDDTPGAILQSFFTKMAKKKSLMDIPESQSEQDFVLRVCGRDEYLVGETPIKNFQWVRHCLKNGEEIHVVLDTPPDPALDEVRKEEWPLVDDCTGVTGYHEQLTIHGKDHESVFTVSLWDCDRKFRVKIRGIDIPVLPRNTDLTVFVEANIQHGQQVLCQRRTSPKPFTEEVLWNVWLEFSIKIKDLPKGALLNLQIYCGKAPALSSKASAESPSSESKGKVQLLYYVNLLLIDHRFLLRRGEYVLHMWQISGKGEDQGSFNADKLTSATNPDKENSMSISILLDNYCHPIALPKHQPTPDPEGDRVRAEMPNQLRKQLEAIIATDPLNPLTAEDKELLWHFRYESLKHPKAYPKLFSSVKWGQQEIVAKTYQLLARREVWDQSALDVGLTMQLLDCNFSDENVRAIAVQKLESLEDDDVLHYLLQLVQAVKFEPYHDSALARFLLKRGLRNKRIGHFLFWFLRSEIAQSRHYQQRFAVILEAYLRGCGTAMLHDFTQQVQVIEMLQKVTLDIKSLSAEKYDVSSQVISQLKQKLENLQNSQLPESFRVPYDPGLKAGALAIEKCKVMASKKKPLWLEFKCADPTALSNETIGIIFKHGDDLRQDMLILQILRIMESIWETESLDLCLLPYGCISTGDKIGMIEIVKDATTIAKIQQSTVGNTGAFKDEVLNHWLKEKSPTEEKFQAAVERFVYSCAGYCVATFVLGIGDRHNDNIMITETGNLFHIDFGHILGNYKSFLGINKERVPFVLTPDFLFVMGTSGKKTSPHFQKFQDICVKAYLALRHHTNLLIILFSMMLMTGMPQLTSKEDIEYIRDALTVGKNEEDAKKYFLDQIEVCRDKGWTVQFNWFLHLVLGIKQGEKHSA

Sequence of PIK3CA (human) (P42336 whole entry, looked up): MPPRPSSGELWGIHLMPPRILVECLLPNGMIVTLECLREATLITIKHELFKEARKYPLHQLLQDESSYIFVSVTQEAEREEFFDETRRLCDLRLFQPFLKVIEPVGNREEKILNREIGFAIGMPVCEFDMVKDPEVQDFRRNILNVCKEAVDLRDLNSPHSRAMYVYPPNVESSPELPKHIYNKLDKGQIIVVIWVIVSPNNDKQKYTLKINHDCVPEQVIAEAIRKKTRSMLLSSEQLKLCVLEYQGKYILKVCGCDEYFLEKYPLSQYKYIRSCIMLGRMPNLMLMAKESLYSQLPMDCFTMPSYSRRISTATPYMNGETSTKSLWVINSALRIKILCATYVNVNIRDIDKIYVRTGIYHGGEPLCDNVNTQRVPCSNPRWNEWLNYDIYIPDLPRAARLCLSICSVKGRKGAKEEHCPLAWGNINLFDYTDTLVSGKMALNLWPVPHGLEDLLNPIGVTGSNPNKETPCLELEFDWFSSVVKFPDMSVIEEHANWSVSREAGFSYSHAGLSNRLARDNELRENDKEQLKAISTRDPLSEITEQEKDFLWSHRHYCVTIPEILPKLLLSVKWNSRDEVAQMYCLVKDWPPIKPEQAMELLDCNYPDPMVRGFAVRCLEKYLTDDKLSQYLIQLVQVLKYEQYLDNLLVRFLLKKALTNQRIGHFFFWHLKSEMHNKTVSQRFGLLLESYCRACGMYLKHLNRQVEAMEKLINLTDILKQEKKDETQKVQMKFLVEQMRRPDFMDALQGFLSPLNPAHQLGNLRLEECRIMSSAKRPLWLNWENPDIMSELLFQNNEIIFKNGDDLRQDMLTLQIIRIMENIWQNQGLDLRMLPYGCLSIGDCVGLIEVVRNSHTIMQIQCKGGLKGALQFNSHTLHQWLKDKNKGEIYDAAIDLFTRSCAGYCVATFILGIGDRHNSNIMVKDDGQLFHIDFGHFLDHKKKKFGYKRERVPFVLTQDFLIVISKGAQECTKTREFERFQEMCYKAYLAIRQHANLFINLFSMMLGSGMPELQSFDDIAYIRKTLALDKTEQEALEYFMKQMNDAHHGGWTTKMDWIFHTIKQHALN
Sequence of PIK3CD (Human) (O00329 whole entry, looked up): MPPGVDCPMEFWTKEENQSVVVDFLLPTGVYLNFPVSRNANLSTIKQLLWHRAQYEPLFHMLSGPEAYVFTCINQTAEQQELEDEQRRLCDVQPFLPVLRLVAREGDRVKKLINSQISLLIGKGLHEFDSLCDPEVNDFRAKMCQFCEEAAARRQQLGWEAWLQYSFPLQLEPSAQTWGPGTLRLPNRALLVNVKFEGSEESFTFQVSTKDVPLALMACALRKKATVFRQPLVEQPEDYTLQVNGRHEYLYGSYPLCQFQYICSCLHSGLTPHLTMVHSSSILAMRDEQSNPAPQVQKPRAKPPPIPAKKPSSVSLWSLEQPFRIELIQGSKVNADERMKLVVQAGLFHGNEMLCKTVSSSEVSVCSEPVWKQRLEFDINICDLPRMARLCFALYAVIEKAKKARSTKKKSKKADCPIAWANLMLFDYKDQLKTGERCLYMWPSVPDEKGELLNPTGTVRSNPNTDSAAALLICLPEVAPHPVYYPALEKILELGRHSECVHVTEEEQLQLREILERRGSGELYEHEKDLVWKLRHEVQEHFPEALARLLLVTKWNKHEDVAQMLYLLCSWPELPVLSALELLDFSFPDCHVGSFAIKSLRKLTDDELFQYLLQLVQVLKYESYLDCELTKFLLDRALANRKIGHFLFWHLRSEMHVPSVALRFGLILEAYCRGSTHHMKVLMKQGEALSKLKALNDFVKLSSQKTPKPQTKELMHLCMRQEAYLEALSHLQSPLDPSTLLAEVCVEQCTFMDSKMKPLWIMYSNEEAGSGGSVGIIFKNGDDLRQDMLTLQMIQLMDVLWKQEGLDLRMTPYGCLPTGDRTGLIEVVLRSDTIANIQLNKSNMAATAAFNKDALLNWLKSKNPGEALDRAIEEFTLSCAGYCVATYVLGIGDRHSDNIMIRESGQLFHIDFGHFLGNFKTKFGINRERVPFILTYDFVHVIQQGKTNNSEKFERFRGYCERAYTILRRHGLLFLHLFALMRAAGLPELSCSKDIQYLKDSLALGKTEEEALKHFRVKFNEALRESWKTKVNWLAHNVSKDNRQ
Sequence of PIK3CB (Human) (P42338 whole entry, looked up): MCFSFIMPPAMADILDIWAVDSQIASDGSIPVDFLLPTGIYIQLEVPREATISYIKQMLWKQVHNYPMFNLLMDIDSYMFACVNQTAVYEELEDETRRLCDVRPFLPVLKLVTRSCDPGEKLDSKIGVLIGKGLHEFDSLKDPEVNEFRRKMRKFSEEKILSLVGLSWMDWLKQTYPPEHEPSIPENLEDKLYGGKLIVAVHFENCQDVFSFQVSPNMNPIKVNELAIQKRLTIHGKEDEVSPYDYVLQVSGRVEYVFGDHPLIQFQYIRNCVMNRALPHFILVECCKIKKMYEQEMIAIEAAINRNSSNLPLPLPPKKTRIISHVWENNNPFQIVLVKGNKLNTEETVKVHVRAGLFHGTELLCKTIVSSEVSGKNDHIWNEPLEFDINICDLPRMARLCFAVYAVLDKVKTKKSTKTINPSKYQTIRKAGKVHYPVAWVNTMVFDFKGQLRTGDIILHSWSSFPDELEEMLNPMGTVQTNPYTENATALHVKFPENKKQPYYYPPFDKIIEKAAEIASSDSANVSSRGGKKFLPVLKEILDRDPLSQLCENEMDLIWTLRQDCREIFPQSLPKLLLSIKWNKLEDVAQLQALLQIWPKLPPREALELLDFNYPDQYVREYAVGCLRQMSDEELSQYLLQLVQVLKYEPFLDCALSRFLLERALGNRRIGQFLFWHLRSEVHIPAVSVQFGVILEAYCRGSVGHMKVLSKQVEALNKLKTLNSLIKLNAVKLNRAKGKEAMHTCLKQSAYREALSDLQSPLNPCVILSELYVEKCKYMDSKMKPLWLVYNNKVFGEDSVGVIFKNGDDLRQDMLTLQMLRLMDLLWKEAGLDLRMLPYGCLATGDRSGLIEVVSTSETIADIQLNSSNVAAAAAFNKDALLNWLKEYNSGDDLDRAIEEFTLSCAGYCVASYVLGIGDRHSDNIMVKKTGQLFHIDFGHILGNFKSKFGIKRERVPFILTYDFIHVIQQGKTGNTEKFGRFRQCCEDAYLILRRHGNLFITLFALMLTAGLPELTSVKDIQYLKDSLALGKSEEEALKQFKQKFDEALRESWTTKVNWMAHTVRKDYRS

IC50 [1] [nM] | IC50 [2] [nM] | Compound | further results
3 |  | Cc1c(Cl)cccc1Cn1c(SCC(=O)O)nc(=O)c2sc(N3CCOCC3)nc21 | 
 | 2.4 | CN(C)CCN(C)C(=O)c1ccc(NC(=O)Nc2ccc(-c3nc(N4CCOCC4)c4ccn(CC(F)(F)F)c4n3)cc2)cc1 | 
12 |  | CCOC(=O)c1ccc(-c2csc3c(=O)cc(N4CCOCC4)oc23)cc1 | 
 |  | CC(C)c1nc2ccccc2n1-c1nc(N2CCOCC2)c2nc(OC3CN(C4CCS(=O)(=O)CC4)C3)n(C)c2n1 | Ki [1]: 0.4 nM
 |  | O=C(c1ccccc1)c1ccc(N2CCOCC2)cc1O | IC50 [3]: 3700 nM
 | 35 | CN(C)CCCNC(=O)c1cn2cc(-c3cccc4[nH]ncc34)nc(N3CCOCC3)c2n1 | 
 | 0.35 | N#Cc1c(N2CCOCC2)sc(-c2nc[nH]n2)c1-c1ccc(Cl)cc1Cl | 
830 |  | CC1(C)CC(=O)c2sc(N3CCOc4ccccc43)nc2C1 | IC50 [4]: 610 nM
16 |  | CS(=O)(=O)N1CCN(Cc2cc3nc(-c4cnc(N)nc4)nc(N4CCOCC4)c3s2)CC1 | IC50 [3]: 12 nM
 | ≥ 100000 | Cc1c(OCCN2CCN(C)CC2)ccc2c(=O)nc(N3CCOCC3)oc12 | 

From the Kinase Knowledgebase extract (Sharma et al. 2016)
